The results in this text go back to patent US20050282814A1, “Vasculostatic agents and methods of use thereof” (TargeGen, Inc., priority 2002, published 2005).

One assay addresses T1, recombinant human c-Src (Homo sapiens, UniProt P12931).
T1 construct: purchased Panvera, Madison Wis
The experiment in a line: c-Src kinase inhibition, KinaseGlo residual ATP. The format is biochemical. The settings on record: ATP 3 μM, 90 minutes at room temperature. The source says: (§1) The ability of compounds to inhibit the activity of two Src-family kinases (c-Src and Yes) was directly tested.
On the technique in general: Kinase-Glo reads ATP consumption through a luciferase reaction.

A further assay concerns the target T2, recombinant human Yes (Homo sapiens, UniProt P07947).
T2 construct: purchased Panvera, Madison Wis
The experiment in a line: Yes kinase inhibition, KinaseGlo residual ATP. The settings on record: ATP 3 μM, 90 minutes at room temperature. The format is biochemical.
Source text: as §1

The target in assay [1] is T3, human p120γ subunit of PI3K (Homo sapiens, UniProt P48736).
T3 construct: Upstate Group, Charlottesville, Va; (ran the assay under contract)
T3 sequence (P48736 whole entry): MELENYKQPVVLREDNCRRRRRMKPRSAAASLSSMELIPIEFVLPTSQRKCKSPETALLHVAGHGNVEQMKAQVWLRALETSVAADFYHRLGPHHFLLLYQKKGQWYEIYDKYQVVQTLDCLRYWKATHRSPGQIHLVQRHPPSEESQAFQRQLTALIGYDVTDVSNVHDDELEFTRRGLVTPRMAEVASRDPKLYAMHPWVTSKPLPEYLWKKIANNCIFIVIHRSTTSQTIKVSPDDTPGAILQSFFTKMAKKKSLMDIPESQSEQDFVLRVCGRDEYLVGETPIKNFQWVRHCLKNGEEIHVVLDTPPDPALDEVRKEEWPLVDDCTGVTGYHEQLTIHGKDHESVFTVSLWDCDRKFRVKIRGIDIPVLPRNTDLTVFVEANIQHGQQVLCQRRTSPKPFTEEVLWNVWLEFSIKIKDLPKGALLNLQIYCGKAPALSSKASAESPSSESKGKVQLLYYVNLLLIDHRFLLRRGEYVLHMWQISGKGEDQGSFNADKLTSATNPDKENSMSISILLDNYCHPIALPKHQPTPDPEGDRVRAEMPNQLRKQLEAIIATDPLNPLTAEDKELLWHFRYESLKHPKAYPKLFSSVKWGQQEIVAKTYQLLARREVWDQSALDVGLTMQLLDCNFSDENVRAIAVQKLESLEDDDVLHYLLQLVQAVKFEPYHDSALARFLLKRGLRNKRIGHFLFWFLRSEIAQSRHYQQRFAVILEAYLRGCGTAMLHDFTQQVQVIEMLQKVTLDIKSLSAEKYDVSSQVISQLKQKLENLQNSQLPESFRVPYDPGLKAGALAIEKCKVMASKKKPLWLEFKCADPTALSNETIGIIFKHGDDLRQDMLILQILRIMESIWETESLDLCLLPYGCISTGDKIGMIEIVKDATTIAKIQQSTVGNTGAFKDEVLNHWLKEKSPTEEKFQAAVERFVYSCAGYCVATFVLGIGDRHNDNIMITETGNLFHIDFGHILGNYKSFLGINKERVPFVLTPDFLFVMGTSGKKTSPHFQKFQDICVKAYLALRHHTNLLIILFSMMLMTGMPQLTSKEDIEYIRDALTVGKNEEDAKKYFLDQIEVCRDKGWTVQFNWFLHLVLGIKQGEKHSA
The assay is described as follows: PI3K p120γ enzymatic activity at two concentrations (Upstate Group). The format is biochemical. As to conditions: 100% = no inhibition, 0% = complete inhibition; for remaining activity at 0.5 µM: read-out: Percent Control Value at 0.5 μM; for remaining activity at 5 µM: read-out: Percent Control Value at 5 μM. The method, then: The ability of compounds to inhibit the activity of PI3K kinase was determined using biochemical assays. In a first assay, compounds were tested at two concentrations (0.5 and 5 μM) for their ability to inhibit enzymatic activity of the human p120γ subunit of PI3K (the assay being performed under contract by Upstate Group, Charlottesville, Va.).

Another assay has as its system acute myocardial infarct. The assay is described as follows: Rat acute myocardial infarct model (60 min LAD occlusion, reperfusion). The settings on record: 1.0 mg/kg IV at 90 min post-reperfusion; 24 hr; vs vehicle. The class given is in vivo, Sprague-Dawley rats. The method, then:
A rodent model of acute myocardial infarct, in which the proximal left anterior descending coronary artery (LAD) is occluded for 60 min followed by reperfusion, was used to determine whether test agents reduced infarct size at 24 hours.
Myocardial infarcts were created in Sprague-Dawley rats (200-300 g body weight) by a 60 min occlusion of the LAD followed by LAD reperfusion. At 90 min post-reperfusion, either vehicle alone or test agents were injected IV. At 24 hr post-treatment, the ischemic zone (area at-risk, AAR) was delineated by re-ligation of the LAD followed by IV injection of alkali blue dye, after which hearts were sectioned along the short axis and stained using triphenyltetrazolium chloride to delineate viable from infarcted myocardium. Photographic images were then analyzed using morphometric software to calculate infarct area as a percent of the at-risk area.
The following studies were performed as described above, except that the timing of 3-[2,4-diamino-6-(3-hydroxyphenyl)pteridin-7-yl] phenol dihydrochloride salt administration (at 0.1 mg/kg) was varied. In one group, 3-[2,4-diamino-6-(3-hydroxyphenyl)pteridin-7-yl] phenol dihydrochloride salt was administered at both 60 and 240 min post-occlusion.
In a porcine MI model (90 min of LAD occlusion followed by complete reperfusion), a single 0.3 mg/kg IV bolus delivered 30 min post-reperfusion reduced infarct size by […] vs. controls (40% vs. 56%, N=12-13, P=0.03).

Assay [2] addresses recombinant phosphatidylinositol 3-kinase-p120γ (PI3K) (Homo sapiens, UniProt P48736). The assay is described as follows: biochemical.
The subject of a further assay is VEGF-induced edema. The experiment in a line: Miles assay, VEGF-induced edema. The format is in vivo, Sprague-Dawley rats. The settings on record: VEGF 200 ng/site, 45 min, vehicle 12. The method, then: A rodent model of vascular edema, the Miles assay, was used to screen compounds for their ability to inhibit VEGF-induced edema.
Sprague-Dawley rats were first injected IV with vehicle alone or test agent, followed by IV injection of Evans blue dye, followed by intradermal injections of saline and VEGF (200 ng/injection site) along both shaved flanks. After 45 min, intradermal injection sites were photographed and then scored by a blinded observer for extravasation of Evans blue dye into the dermis (dermal bluing) according to a 4 point scoring system (3=maximal bluing, ≧75% of response in vehicle-treated animals; 2=medium bluing, >25% but <75% of vehicle-treated animals; 1=minimal bluing, ≦25% of vehicle-treated animals; 0=bluing equivalent to saline injection sites on same animal). Individual scores for 4 injection sites (from 2 separate animals) were summed and are shown as a scale of 0-12, with a lower score indicating the greater anti-edema activity; note that all vehicle-treated groups score a value of 12, based on the scoring system outlined above.

In another assay the test system is cerebral stroke. The assay is described as follows: Cerebral stroke model, permanent middle cerebral artery occlusion. As to conditions: 1 mg/kg BW IV 60 min after ligation, 24 hours; for % Infarct reduction: vs vehicle. The class given is in vivo, mice. The method, then: A rodent model of cerebral stroke, in which the middle cerebral artery is permanently occluded, was used to determine whether test agents reduced infarct size at 24 hours.
Cerebral strokes were created in mice by permanent ligation of the middle cerebral artery using a cauterizing tool, followed 60 min later by IV injection of either vehicle alone (50% PEG400 in water) or test agents (at 1 mg/kg BW). Twenty four hours later, brains were sectioned and stained using triphenyltetrazolium chloride to delineate viable from infarcted tissue. Photographic images were then analyzed using morphometric software to calculate infarct area.

The structures appear in SMILES notation. Where a name gives a salt, the structure may show the parent alone.

recombinant phosphatidylinositol 3-kinase-p120γ (PI3K), sequence (P48736 whole entry): as above
T2 sequence (P07947 whole entry): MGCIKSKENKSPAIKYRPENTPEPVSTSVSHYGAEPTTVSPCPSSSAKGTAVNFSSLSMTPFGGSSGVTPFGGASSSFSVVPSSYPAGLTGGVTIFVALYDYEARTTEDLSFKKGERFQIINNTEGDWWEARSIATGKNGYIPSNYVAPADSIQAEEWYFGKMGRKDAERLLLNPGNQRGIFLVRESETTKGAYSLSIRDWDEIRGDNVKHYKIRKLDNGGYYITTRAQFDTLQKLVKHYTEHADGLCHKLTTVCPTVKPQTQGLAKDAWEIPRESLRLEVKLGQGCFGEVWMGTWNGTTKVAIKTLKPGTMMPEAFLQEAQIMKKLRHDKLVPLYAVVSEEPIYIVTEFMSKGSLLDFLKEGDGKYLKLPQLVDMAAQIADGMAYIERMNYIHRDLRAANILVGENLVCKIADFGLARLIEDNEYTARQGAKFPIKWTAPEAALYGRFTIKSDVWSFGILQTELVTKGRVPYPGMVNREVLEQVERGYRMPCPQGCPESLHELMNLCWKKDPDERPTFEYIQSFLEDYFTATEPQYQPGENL
T1 sequence (P12931 whole entry): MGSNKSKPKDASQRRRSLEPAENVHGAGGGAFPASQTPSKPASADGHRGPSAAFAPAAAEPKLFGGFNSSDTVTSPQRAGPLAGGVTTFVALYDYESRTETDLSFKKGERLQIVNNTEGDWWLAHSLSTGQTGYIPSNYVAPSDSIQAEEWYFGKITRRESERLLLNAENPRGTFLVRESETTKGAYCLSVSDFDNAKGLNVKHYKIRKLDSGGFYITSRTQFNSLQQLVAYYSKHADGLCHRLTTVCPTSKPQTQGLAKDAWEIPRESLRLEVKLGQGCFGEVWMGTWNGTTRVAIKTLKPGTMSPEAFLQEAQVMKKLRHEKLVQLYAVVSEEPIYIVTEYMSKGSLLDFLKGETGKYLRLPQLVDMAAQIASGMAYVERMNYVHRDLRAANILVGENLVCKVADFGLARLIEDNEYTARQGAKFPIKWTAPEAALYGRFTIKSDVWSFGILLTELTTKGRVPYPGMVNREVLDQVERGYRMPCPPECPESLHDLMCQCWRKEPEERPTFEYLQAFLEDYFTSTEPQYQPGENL

What is called IC50 is the point on the concentration scale where inhibition reaches its midpoint. On to `Nc1ncnc2nc(-c3cccc(O)c3)c(-c3cccc(O)c3)nc12` [6,7-Bis(3-hydroxyphenyl)-pteridine-4-ylamine hydrobromide salt], for which the 50% inhibitory concentration (IC50) at recombinant human c-Src came out at 8.8 µM. Turning to `Nc1cncc2nc(-c3ccc(O)c(O)c3)c(-c3ccc(O)c(O)c3)nc12` [2,3-Bis(3,4-dihydroxyphenyl)-pyrido[3,4-b]pyrazin-8-ylamine hydrochloride salt], the figures for the IC50 at recombinant human c-Src and on recombinant human Yes were 1.6 µM and 1 µM, respectively. As for `Nc1cncc2nc(-c3cccc(O)c3)c(-c3cccc(O)c3)nc12` [2,3-Bis(3-hydroxyphenyl)-pyrido[3,4-b]pyrazin-8-ylamine hydrochloride salt], in assay [1], the remaining activity at 0.5 µM was found to be 101% and the remaining activity at 5 µM was 90%. As for `O=C(Nc1ccccc1-c1cc2ccccc2[nH]1)c1ccc(O)c(O)c1` [3,4-Dihydroxy-N-(2-(1H-indol-2-yl)-phenyl)-benzamide], the figures for the IC50 on recombinant human c-Src and on recombinant human Yes were 0.337 µM and 0.303 µM, respectively. As to `Nc1ncnc2nc(-c3cccc(O)c3)c(-c3cccc(O)c3)nc12` [6,7-bis(3-hydroxyphenyl)-pteridin-4-ylamine hydrochloride salt], the concentration for half-maximal inhibition (IC50) at recombinant human c-Src worked out at 10 µM; on recombinant human Yes it was 6.3 µM. Regarding `Cl.Cl.Nc1nc(N)c2nc(-c3cccc(O)c3)c(-c3cccc(O)c3)nc2n1`, the “% Infarct reduction” value with acute myocardial infarct was “Not significant”. For `Nc1nc(N)c2nc(-c3ccc(O)c(O)c3)c(-c3ccc(O)c(O)c3)nc2n1` [6,7-bis(3,4-dihydroxyphenyl)-pteridine-2,4-diamine], in assay [1], the remaining activity at 0.5 µM came to 66% and the remaining activity at 5 µM is 12%. In addition, the IC50 in assay [2] came to 0.273 µM. For the compound `Cc1cccc(C)c1-c1cc(C)c2nc(Nc3ccccc3)nnc2c1` [[7-(2,6-Dimethyl-phenyl)-5-methyl-benzo[1,2,4]triazin-3-yl]-phenyl-amine], the IC50 on recombinant human c-Src was 0.294 µM. The same measure, in the same setting: the figure for `Oc1ccc(CNc2ncnc3ncc(-c4ccccc4)nc23)cc1O` is 0.42 µM. Regarding `Nc1nc(N)c2nc(CNCc3ccc4ccccc4c3)cnc2n1` [6-{[(Naphthalen-2-ylmethyl)-amino]-methyl-pteridine-2,4-diamine], the “Score (scale of 0-12)” value with VEGF-induced edema (0.1 mg/kg IV) was found to be 4. On to `Nc1nnc2cc(-c3cccc(O)c3)ccc2n1` [3-(3-Amino-benzo[1,2,4]triazin-7-yl)-phenol], for which the results for the IC50 on recombinant human c-Src and on recombinant human Yes were 12 µM and 6.8 µM, respectively.

Take `Nc1ccc2nc(-c3ccc(O)c(O)c3)c(-c3ccc(O)c(O)c3)nc2n1` [compound C, 2,3-Bis(3,4-dihydroxyphenyl)-pyrido[2,3-b]pyrazin-6-ylamine dihydrochloride salt]: the IC50 on recombinant human c-Src amounted to 1.3 µM; on recombinant human Yes, 0.756 µM. With `Nc1ncnc2nc(-c3ccccn3)c(-c3ccccn3)nc12` [6,7-Di-pyridin-2-yl-pteridin-4-ylamine], the “% Infarct reduction” value in the assay on cerebral stroke is listed as “Not significant”.

Turning to `Nc1ncnc2nc(-c3ccc(O)cc3)c(-c3ccc(O)cc3)nc12` [6,7-bis(4-hydroxyphenyl)-pteridin-4-ylamine], in assay [1], the remaining activity at 0.5 µM came out at 102% and the remaining activity at 5 µM amounted to 85%. For `Nc1nc(O)c2nc(-c3cccc(O)c3)c(-c3cccc(O)c3)nc2n1` [2-Amino-6,7-bis-(3-hydroxy-phenyl)-pteridin-4-ol], in assay [1], the remaining activity at 0.5 µM is 102% and the remaining activity at 5 µM came out at 99%. Moreover, the IC50 in assay [2] turned out to be 48 µM. Regarding `O=C(Nc1ccccc1-c1cc2ccccc2[nH]1)c1cccnc1C(=O)O` [3-[2-(1H-Indol-2-yl)-phenyicarbamoyl]-pyridine-2-carboxylic acid], the “Score (scale of 0-12)” value in the assay on VEGF-induced edema (0.5 mg/kg IV) is listed as 5. Take `Nc1nnc2cc(-c3ccccc3C(F)(F)F)ccc2n1` [7-(2-Trifluoromethyl-phenyl)-benzo[1,2,4]triazin-3-ylamine]: the IC50 at recombinant human c-Src amounted to 9.2 µM; at recombinant human Yes, 7 µM.

As for `Cl.Nc1ncnc2nc(-c3ccc(O)c(O)c3)c(-c3ccc(O)c(O)c3)nc12` [4-[4-amino-6-(3,4-dihydroxyphenyl)pteridin-7-yl]benzene-1,2-diol hydrochloride salt], the “Score (scale of 0-12)” value in the assay on VEGF-induced edema (0.01 mg/kg IV) amounted to 6; with VEGF-induced edema (0.1 mg/kg IV), 3; in the assay on VEGF-induced edema (1 mg/kg IV), 5. Besides, on recombinant human c-Src, the IC50 was found to be 1.3 µM. For `Nc1ncnc2nc(-c3ccc(O)c(O)c3)c(-c3ccc(O)c(O)c3)nc12` [4-[4-amino-6-(3,4-dihydroxyphenyl)pteridin-7-yl]benzene-1,2-diol methanesulfonate salt], on recombinant human c-Src, the 50% inhibitory concentration (IC50) amounted to 0.8 µM.

On to `Nc1ncnc2nc(-c3ccc(O)c(O)c3)c(-c3ccc(O)c(O)c3)nc12` [4-[4-amino-6-(3,4-dihydroxyphenyl)pteridin-7-yl]benzene-1,2-diol], for which the half-inhibitory concentration (IC50) in assay [2] turned out to be 0.968 µM. In the case of `Oc1nc(O)c2nc(-c3ccc(O)c(O)c3)c(-c3ccc(O)c(O)c3)nc2n1` [6,7-bis(3,4-dihydroxyphenyl)pteridine-2,4-diol], the concentration for half-maximal inhibition (IC50) on recombinant human c-Src worked out at 1.8 µM; on recombinant human Yes, 0.9 µM.

As for `Cc1ccc(-c2nn(C(C)(C)C)c3ncnc(N)c23)cc1` [PP1, reference compound], in the assay on cerebral stroke, the “Infarct area in mm^3 (mean ± SEM)” value came to 35.4 ± 6.4 mm^3 and the “% Infarct reduction” value is “Not significant”. With `Oc1ccc(CCNc2ncnc3ncc(-c4ccccc4)nc23)cc1O` [4-[2-(6-Phenyl-pteridin-4-ylamino)-ethyl]benzene-1,2-diol], on recombinant human c-Src, the concentration for half-maximal inhibition (IC50) came out at 0.317 µM. On to `Nc1nc(N)c2nc(-c3ccc(O)cc3)c(-c3ccc(O)cc3)nc2n1` [6,7-Bis(4-hydroxyphenyl)-pteridine-2,4-diamine], for which, in assay [1], the remaining activity at 0.5 µM is 94% and the remaining activity at 5 µM was found to be 46%. Take `CN(C)S(=O)(=O)c1ccc2c(c1)/C(=C/c1cc3c([nH]1)CCCC3)C(=O)N2` [SU6656, reference compound]: the “% Infarct reduction” value in the assay with cerebral stroke is “Not significant”. With `Nc1nnc2cc(-c3cccc4ccccc34)ccc2n1` [7-Naphthalen-1-yl-benzo[1,2,4]triazin-3-ylamine], the half-maximal inhibitory concentration (IC50) on recombinant human c-Src worked out at 0.9 µM; at recombinant human Yes, 9.3 µM. For `Nc1nc(N)c2nc(-c3ccc(O)c(O)c3)c(-c3ccc(O)c(O)c3)nc2n1` [6,7-bis(3,4-dihydroxyphenyl)-pteridine-2,4-diamine dihydrochloride salt], the figures for the IC50 on recombinant human c-Src and on recombinant human Yes were 2.6 µM and 1.1 µM, respectively. Regarding `Nc1nc(N)c2nc(-c3ccccc3)c(-c3ccccc3)nc2n1` [compound B, 6,7-diphenyl-pteridine-2,4-diamine], in assay [1], the remaining activity at 0.5 µM came to 101% and the remaining activity at 5 µM is 81%. Turning to `Nc1cncc2nc(-c3ccc(O)cc3)c(-c3ccc(O)cc3)nc12` [2,3-Bis(4-hydroxyphenyl)-pyrido[3,4-b]pyrazin-8-ylamine], in assay [1], the remaining activity at 0.5 µM was 101% and the remaining activity at 5 µM came out at 94%.

As for `Nc1ncc2nc(-c3cccc(O)c3)c(-c3cccc(O)c3)nc2n1` [6,7-bis(3-hydroxyphenyl)-pteridine-2-amine], the IC50 on recombinant human c-Src turned out to be 27.6 µM; on recombinant human Yes, 3.8 µM.
